Tested on: suspension culture of E. peplus
Experiment: Precursor feeding of E. peplus suspension culture with angelic acid: cell growth
Assay type: cell-based, Euphorbia peplus
Conditions: 0.5 mM angelic acid added to E. peplus suspension culture, cultivated for 7-14 days; sterile water as negative control
Experimental: Further increase of Ingenol-3-angelate was achieved using angelic acid as a precursor. A suspension culture of E. peplus, newly transferred or up to 14 days old, was supplemented with 0.5 mM angelic acid. […] The same amount of sterile water was used as a negative control. After addition of angelic acid, the culture was cultivated for 7-14 days (see FIG. 6).

## C/C=C(/C)C(=O)O [angelic acid, 2-methyl-2(Z)-butenoic acid]
  influence on cell growth: no influence on cell growth
